Converted amounts (≈) assume the structure as drawn. Where two headings read alike, the source gives them in different places.
Legend:
MRSA isolates = experiment: MIC/MBC, CLSI broth microdilution, MRSA isolates; format: cell-based, Staphylococcus aureus
[1] = system: Staphylococcus epidermidis isolates; experiment: microbe, parasite or virus in culture; format: cell-based
[2] = system: MRSA isolates SA LL 06 and TCH 1516; experiment: Kill kinetics against stationary-phase MRSA; format: cell-based, Staphylococcus aureus; details: shaking, 37°C
Description: MRSA isolates, TCH 1516 and SA LL 06, were grown to the stationary phase, and the rate of bacterial killing was determined. Frozen bacterial stocks were streaked onto TSA plates and grown overnight. A single colony was selected and incubated overnight in LB broth at 37°C with constant orbital shaking at 200 RPM. Next, bacterial suspension was washed twice with 150 mM sodium chloride and resuspended in MH broth at a concentration of 1.2E9 CFU/mL. […] Glass tubes containing 5 mL of bacteria and drug solutions were grown in a shaking incubator at 37°C. At 0, 4, 8, and 24 hours, bacterial suspensions were collected, serially diluted, and plated onto a blood agar plate. Bacteria were allowed to grow for 24 hours and were enumerated to yield colony-forming units per milliliter.

[3] = system: MRSA isolate SAD05 biofilms; format: cell-based, Staphylococcus aureus; details: 72-hour biofilms of SAD05, MBEC assay
MRSA isolate TCH 1516 [4] = experiment: Single-step resistance development; format: cell-based, Staphylococcus aureus
Description: For the single-step study, bacteria were grown to the stationary phase as described above. Bacteria at a concentration of 1E9 CFU were then plated onto C59 and vancomycin-loaded plates containing 1×, 2×, 4×, and 8× MIC concentrations of the therapeutic agents with 1% DMSO. Bacteria were incubated at 37°C for 48 hours, and colony counts were enumerated to calculate the frequency of resistance development, as described in the literature ([45], [46]).

MRSA isolate TCH 1516 [5] = experiment: Resistance acquisition during serial passage; format: cell-based, Staphylococcus aureus; details: serial passage, within 7 days, stable thereafter
Description: MRSA isolate TCH 1516 was grown to the stationary phase (OD650 = 1.0) in 10 mL of MH broth. […] The second highest drug concentration resulting in bacterial growth (OD650 >1.0) was used as the inoculum after a 1:1,000 dilution for subsequent steps, every 24 hours, for up to 21 days.

[6] = Staphylococcus aureus, MRSA, pH 5.5, MRSA 0606, pH 5.5
[7] = Staphylococcus aureus, MRSA, pH 5.5, MRSA 0608, pH 5.5
[8] = Staphylococcus aureus, MRSA, pH 5.5, MRSA 0634, pH 5.5
[9] = Staphylococcus aureus, MRSA, pH 5.5, MRSA 0641, pH 5.5
[10] = Staphylococcus aureus, MRSA, pH 5.5, MRSA 0646, pH 5.5
[11] = Staphylococcus aureus, MRSA, pH 5.5, TCH 1516, pH 5.5
[12] = Staphylococcus aureus, MRSA, pH 6.5, MRSA 0606, pH 6.5
[13] = Staphylococcus aureus, MRSA, pH 6.5, MRSA 0608, pH 6.5
[14] = Staphylococcus aureus, MRSA, pH 6.5, MRSA 0634, pH 6.5
[15] = Staphylococcus aureus, MRSA, pH 6.5, MRSA 0641, pH 6.5
[16] = Staphylococcus aureus, MRSA, pH 6.5, MRSA 0646, pH 6.5
[17] = Staphylococcus aureus, MRSA, pH 6.5, TCH 1516, pH 6.5
[18] = 21 Staphylococcus epidermidis isolates

CN[C@H](CC(C)C)C(=O)N[C@H]1C(=O)N[C@@H](CC(N)=O)C(=O)N[C@H]2C(=O)N[C@H]3C(=O)N[C@H](C(=O)N[C@H](C(=O)O)c4cc(O)cc(O)c4-c4cc3ccc4O)[C@H](O)c3ccc(c(Cl)c3)Oc3cc2cc(c3O[C@@H]2O[C@H](CO)[C@@H](O)[C@H](O)[C@H]2O[C@H]2C[C@](C)(N)[C@H](O)[C@H](C)O2)Oc2ccc(cc2Cl)[C@H]1O [Vancomycin, vancomycin, reference compound]
MBC (MRSA isolates; MRSA 0606, pH 7.4): 2 µg/mL (≈ 1.38 µM) | MIC (MRSA isolates; MRSA 0606, pH 7.4): 2 µg/mL (≈ 1.38 µM) | MBC (MRSA isolates; MRSA 0608, pH 7.4): 6 µg/mL (≈ 4.14 µM) | MIC (MRSA isolates; MRSA 0608, pH 7.4): 2 µg/mL (≈ 1.38 µM) | MBC (MRSA isolates; MRSA 0634, pH 7.4): 6 µg/mL (≈ 4.14 µM) | MIC (MRSA isolates; MRSA 0634, pH 7.4): 2 µg/mL (≈ 1.38 µM) | MBC (MRSA isolates; MRSA 0641, pH 7.4): 4 µg/mL (≈ 2.76 µM) | MIC (MRSA isolates; MRSA 0641, pH 7.4): 1 µg/mL (≈ 0.69 µM) | MBC (MRSA isolates; MRSA 0646, pH 7.4): 6 µg/mL (≈ 4.14 µM) | MIC (MRSA isolates; MRSA 0646, pH 7.4): 2 µg/mL (≈ 1.38 µM) | MIC90 (MRSA isolates; Staphylococcus aureus, MRSA, 39 evaluated MRSA isolates, CLSI broth microdilution): 2 µg/mL (≈ 1.38 µM) | MIC (MRSA isolates; Staphylococcus aureus, MRSA, SA LL 06, as given for the kill kinetic assay): 1 µg/mL (≈ 0.69 µM) | MIC (MRSA isolates; Staphylococcus aureus, MRSA, TCH 1516, as given for the kill kinetic assay): 4 µg/mL (≈ 2.76 µM) | MBC (MRSA isolates; [6]): 2 µg/mL (≈ 1.38 µM) | MIC (MRSA isolates; [6]): 2 µg/mL (≈ 1.38 µM) | MBC (MRSA isolates; [7]): 4 µg/mL (≈ 2.76 µM) | MIC (MRSA isolates; [7]): 4 µg/mL (≈ 2.76 µM) | MBC (MRSA isolates; [8]): 8 µg/mL (≈ 5.52 µM) | MIC (MRSA isolates; [8]): 2 µg/mL (≈ 1.38 µM) | MBC (MRSA isolates; [9]): 2 µg/mL (≈ 1.38 µM) | MIC (MRSA isolates; [9]): 2 µg/mL (≈ 1.38 µM) | MBC (MRSA isolates; [10]): 8 µg/mL (≈ 5.52 µM) | MIC (MRSA isolates; [10]): 2 µg/mL (≈ 1.38 µM) | MBC (MRSA isolates; [11]): 4 µg/mL (≈ 2.76 µM) | MIC (MRSA isolates; [11]): 2 µg/mL (≈ 1.38 µM) | MBC (MRSA isolates; Staphylococcus aureus, MRSA, pH 5.5, read-out: Average MBC, average of six MRSA isolates, pH 5.5): 4.7 µg/mL (≈ 3.24 µM) | MIC (MRSA isolates; Staphylococcus aureus, MRSA, pH 5.5, read-out: Average MIC, average of six MRSA isolates, pH 5.5): 2.3 µg/mL (≈ 1.59 µM) | MBC (MRSA isolates; [12]): 4 µg/mL (≈ 2.76 µM) | MIC (MRSA isolates; [12]): 1 µg/mL (≈ 0.69 µM) | MBC (MRSA isolates; [13]): 2 µg/mL (≈ 1.38 µM) | MIC (MRSA isolates; [13]): 2 µg/mL (≈ 1.38 µM) | MBC (MRSA isolates; [14]): 4 µg/mL (≈ 2.76 µM) | MIC (MRSA isolates; [14]): 2 µg/mL (≈ 1.38 µM) | MBC (MRSA isolates; [15]): 2 µg/mL (≈ 1.38 µM) | MIC (MRSA isolates; [15]): 1 µg/mL (≈ 0.69 µM) | MBC (MRSA isolates; [16]): 2 µg/mL (≈ 1.38 µM) | MIC (MRSA isolates; [16]): 2 µg/mL (≈ 1.38 µM) | MBC (MRSA isolates; [17]): 2 µg/mL (≈ 1.38 µM) | MIC (MRSA isolates; [17]): 1 µg/mL (≈ 0.69 µM) | MBC (MRSA isolates; Staphylococcus aureus, MRSA, pH 6.5, read-out: Average MBC, average of six MRSA isolates, pH 6.5): 2.3 µg/mL (≈ 1.59 µM) | MIC (MRSA isolates; Staphylococcus aureus, MRSA, pH 6.5, read-out: Average MIC, average of six MRSA isolates, pH 6.5): 1.5 µg/mL (≈ 1.04 µM) | MBC (MRSA isolates; Staphylococcus aureus, MRSA, pH 7.4, read-out: Average MBC, average of six MRSA isolates, pH 7.4): 4.2 µg/mL (≈ 2.9 µM) | MIC (MRSA isolates; Staphylococcus aureus, MRSA, pH 7.4, read-out: Average MIC, average of six MRSA isolates, pH 7.4): 1.7 µg/mL (≈ 1.17 µM) | MBC (MRSA isolates; Staphylococcus aureus, MRSA, read-out: MBC90, 39 evaluated MRSA isolates, CLSI broth microdilution): 16 µg/mL (≈ 11 µM) | MBC (MRSA isolates; TCH 1516, pH 7.4): 1 µg/mL (≈ 0.69 µM) | MIC (MRSA isolates; TCH 1516, pH 7.4): 1 µg/mL (≈ 0.69 µM) | change of MIC and MBC with the reduction in pH (MRSA isolates; six MRSA isolates, pH lowered to 5.5): increased | MBC range [1, 18]: 2 to 16 µg/mL | MIC range [1, 18]: 1 to 8 µg/mL | MIC90 ([1]; Staphylococcus epidermidis): 4 µg/mL (≈ 2.76 µM) | MBC ([1]; Staphylococcus epidermidis, read-out: MBC90): 8 µg/mL (≈ 5.52 µM) | bacterial killing after 24 hours ([2]; stationary-phase SA LL 06, C59 at 1× and 2× MIC): complete lack of bacterial inhibition | bacterial killing after 24 hours ([2]; stationary-phase TCH 1516): significantly higher bacterial burden | concentration that completely eradicated biofilms [3]: did not demonstrate activity against MRSA biofilms | frequency of resistance acquisition (MRSA isolate TCH 1516 [4]; TCH 1516, 2× MIC): 1.83 × 10^−8 ± 7.10 × 10^−9 | frequency of resistance acquisition (MRSA isolate TCH 1516 [4]; TCH 1516, 4× MIC): 1.56 × 10^−9 ± 7.12 × 10^−10 | frequency of resistance acquisition (MRSA isolate TCH 1516 [4]; TCH 1516, 8× MIC): 5.77 × 10^−10 ± 2.77 × 10^−10 | growth on drug-loaded plates (MRSA isolate TCH 1516 [4]; TCH 1516 stationary phase, C59 as low as 2× MIC, vancomycin up to 8× MIC): bacterial growth was observed | initial increase in MIC (MRSA isolate TCH 1516 [5]): sixfold

From paper PMC10913730, “Antimicrobial activity of a natural compound and analogs against multi-drug-resistant Gram-positive pathogens” (Microbiology Spectrum, 2024)
